Columns and labels:
[1] = Solubility in DMSO or water; conditions: unless warmed up to 30°C
SUM-149 cells [2] = experiment: Colony formation assay; format: cell-based, human; conditions: 72 h treatment, 5–40 μM, 10 days culture
Procedure: SUM-149 cells (1.5 × 10^6 cells/well) were plated on a 6-well plate. Two days later, cell media was changed to 5% FBS, and cells were incubated at 37°C in a 5% CO2 atmosphere for 1 h before vehicle (0.1% DMSO) or EP (5–40 μM) was added. After 72 h of treatment, cells were trypsinized and reseeded at 200 cells/mL per well in 24-well plates. After 10 days of culture, colonies were visualized by crystal violet staining, and the colony numbers were counted under a microscope.

[3] = Incubation of EP with NAC, monitored by NMR and LC-MS; format: physicochemical; conditions: NAC in DMSO, 24 h at 37°C
KOPN-8 cells = experiment: Cell Titer Glo viability assay, KOPN-8; format: cell-based; conditions: Homo sapiens, 72-h treatment
Procedure: (§1) Either 1 × 10^3–4.8 × 10^3 or 4 × 10^2–1.2 × 10^3 cells were seeded to each well of 96- or 384-well white polystyrene flat-bottomed plates (3610 or 8804BC, Corning) in 100 μL or 30 μL media per well, respectively. The concentrations used were experimentally determined to ensure logarithmic growth during the duration of the experiment and prevent adverse effects on cell growth by DMSO exposure. The plates were incubated at 37°C in 5% CO2 for 24 h before treatment. Stock solutions of test compounds (10 mM in DMSO) in nine 3-fold serial dilutions were dispensed via pintool (Biomek). The final concentration of DMSO was 0.3% (v/v) in each well. […] Luminescence was recorded in an Envision plate reader (PerkinElmer).
(§2) For the CTG assay, 3 or 4 replicate assays were conducted for each experimental condition, and a minimum of 3 independent experiments were conducted for cellular assays. The mean luminescence of each experimental treatment group was normalized as a percentage of the mean intensity of untreated controls. EC50 values (μM) were calculated by Pipeline Pilot Software (Accelrys, Enterprise Platform, San Diego, CA, United States). EC50 values (μM) from the viability assay were calculated from dose response curve-fitting via non-linear regression by using GraphPad Prism (Version 7.0, San Diego, CA, United States). […]

MCF10A cells = experiment: cells; format: cell-based
Procedure: Cell viability assays (MTT or PI staining assays) in SUM-149, SUM-190, MDA-MB-231, and MCF10A cells were performed as we previously described ([Suarez-Arroyo et al., 2016]).
For the CTG assay, 3 or 4 replicate assays were conducted for each experimental condition, and a minimum of 3 independent experiments were conducted for cellular assays. The mean luminescence of each experimental treatment group was normalized as a percentage of the mean intensity of untreated controls. EC50 values (μM) were calculated by Pipeline Pilot Software (Accelrys, Enterprise Platform, San Diego, CA, United States). EC50 values (μM) from the viability assay were calculated from dose response curve-fitting via non-linear regression by using GraphPad Prism (Version 7.0, San Diego, CA, United States). For cell viability, colony formation, cell-cycle progression, cell death, and western blot assays, the analyses were performed via one-way or two-way ANOVA with post-testing for each condition (concentration, cell cycle stage, apoptotic event, cell line) by using GraphPad Prism.

SUM-149 cells [4] = experiment: Cell migration assay (Boyden chamber); format: cell-based, human; conditions: 10 μM, 72 h
Procedure: Cell migration and invasion were measured by using Corning® FluoroBlok^TM Cell Culture Inserts and performing BD BioCoat Matrigel invasion assays (BD Biosciences, San José, CA, United States) as described in [Martinez-Montemayor et al. (2011)] and [Suarez-Arroyo et al. (2016)].

[5] = system: AKT isoforms, BCL-XL, Cyclin D1, c-Myc, PARP in SUM-149 cells; experiment: Immunoblots of signaling proteins; format: cell-based, human
Source text: Breast cancer cells treated with vehicle or EP were lysed, and equal total protein was resolved via SDS-PAGE and immunoblotted with indicated antibodies (Cell Signaling Technologies, Abcam, Sigma) as described previously ([Castillo-Pichardo et al., 2009]; [Martinez-Montemayor et al., 2011]; [Suarez-Arroyo et al., 2016]).

Sup-B15 cells = experiment: Cell Titer Glo viability assay, Sup-B15; format: cell-based; conditions: Homo sapiens, 72-h treatment
Procedure: as §1, §2

SUM-149 cells [6] = experiment: Annexin V/7-AAD apoptosis detection; format: cell-based, human; conditions: 48 h
Procedure: SUM-149 cells (5 × 10^5) were seeded and treated either with vehicle (0.1% DMSO) or with 20 μM of EP or with puromycin (200 ng/mL) as positive control for 48 h. After treatment floating cells were collected, and all cells were harvested and counted. Treated cells were analyzed for cell death by using the FITC Annexin-V/7AAD Apoptosis detection kit (product #640922, Biolegend, San Diego, CA, United States) according to the manufacturer’s instructions. Briefly, cells were resuspended in Annexin Binding Buffer, stained with Annexin V-FITC and/or 7-AAD, and incubated for 30 min at 4°C. Data were acquired on a BD FACS Canto II cytometer (BD Biosciences, San José, CA, United States) and analyzed by using FlowJo software (V10, FlowJo, LLC, Ashland, OR, United States).

MDA-MB-231 cells = experiment: Cell viability assay, MDA-MB-231; format: cell-based; conditions: Homo sapiens, Figure 4E
Procedure: as §1, with “(PerkinElmer). […]” for “(PerkinElmer).”
as §2

## CC(C)[C@@H](C)/C=C/[C@@H](C)[C@H]1CC[C@@H]2[C@]1(C)CC[C@H]1[C@]23C=C[C@]2(C[C@@H](O)CC[C@]12C)OO3 [EP, ergosterol peroxide]
[1]
  solubility properties in DMSO or water: poor
SUM-149 cells [2]
  number and size of colonies formed: concentration-dependent decrease
[3]
  reaction of the endoperoxide motif with NAC: no observable olefin migration or opening of the endoperoxide was detected
KOPN-8 cells
  EC50: 22.4 µM
MCF10A cells
  cytotoxicity in MCF10A non-cancerous mammary epithelial cells: did not induce cytotoxicity
MCF10A cells; Homo sapiens, MCF-10A, PI staining, 72-h treatment
  EC50: > 100 µM
SUM-149 cells [4]
  cancer cell migration: decreases cancer cell migration
[5]; SUM-149
  AKT3 levels: not affecting AKT3 levels
  p-AKT2: without affecting p-AKT2
[5]; SUM-149, 30 μM, 24 h
  PARP cleavage: induces PARP cleavage
  total PARP levels: significantly reduces total PARP levels
[5]; SUM-149, 72 h
  AKT2 levels: decreases
  expression of BCL-XL: significantly reduces
  expression of Cyclin D1: significantly reduces
  expression of c-Myc: significantly reduces
  expression of p-AKT1 (Ser 473): significantly decreases
  total AKT1 levels: decreases total AKT1
Sup-B15 cells
  EC50: 9.86 µM
SUM-149 cells [6]; 20μM
  Early apoptotic cells: 50.1%
  Late apoptotic cells: 3.2%
  Live cells: 45.9%
SUM-149 cells [6]; vs vehicle
  decrease of live cells (Annexin-, 7AAD-): ~15%
MDA-MB-231 cells
  EC50: 19 µM

From paper PMC6389703, “Identification of Biologically Active Ganoderma lucidum Compounds and Synthesis of Improved Derivatives That Confer Anti-cancer Activities in vitro” (Frontiers in Pharmacology, 2019)
